Reference: patent US11951197B2, “Use of volatile compounds to modulate the perception of floral muguet” (FIRMENICH SA, priority 2018, dated 2024)

Tests used:
Format in all cases: cell-based
[1] = molecular target: T1, OR10J5 olfactory receptor (Homo sapiens, UniProt Q8NHC4); test: Dose-response confirmation of enhancer candidates, alone and with EC20 LYRAL®; settings: response to LYRAL® raised beyond EC20 without measurable intrinsic activity
T1 construct: Flag; Rho (rhodopsin-derived tag); expressed in transfected cells
T1 sequence (Q8NHC4 1-309): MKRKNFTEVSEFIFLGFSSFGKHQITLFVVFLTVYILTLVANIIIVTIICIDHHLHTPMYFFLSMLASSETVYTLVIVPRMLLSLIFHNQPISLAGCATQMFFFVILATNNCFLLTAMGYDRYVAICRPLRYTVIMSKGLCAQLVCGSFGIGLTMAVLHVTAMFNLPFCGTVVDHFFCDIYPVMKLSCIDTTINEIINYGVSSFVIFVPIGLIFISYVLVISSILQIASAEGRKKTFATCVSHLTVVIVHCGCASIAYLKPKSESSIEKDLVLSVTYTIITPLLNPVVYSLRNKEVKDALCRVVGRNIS
Protocol: (§1) A dose response curve showing the activation of OR10J5 in response to the floral muguet compound 3-(4-hydroxy-4-methylpentyl)cyclohex-3-ene-1-carbaldehyde, 4-(4-hydroxy-4-methylpentyl)cyclohex-3-ene-1-carbaldehyde or a mixture thereof (sold under the tradename LYRAL®, hereinafter referred to as “LYRAL®”) is shown in FIG. 1. Using a cell-based assay, OR10J5 activity was tested in a HEK293T cell line wherein the endogenous chaperone RTP1 gene has been activated and the odorant receptor chaperone was expressed according to the methods disclosed in International Patent Application Publication No. WO2016/201153 A1. The Flag-Rho-tagged receptor was co-transfected with the olfactory canonical G-protein Golf and was exposed to a binary mixture of a single concentration of LYRAL® and a test compound.
(§2) A library of volatile compounds was used to create binary mixtures of each compound with LYRAL® at approximately EC20, a concentration eliciting only approximately 20% of full activity level of OR10J5 by itself. An activation cell-based assay was used for the initial enhancer candidate identification as disclosed in WO2019122236. Single binary mixture-induced receptor activity was detected by measuring the cAMP increase in the cytosol using an HTRF (Homogenous Time-Resolved Fluorescence unit) based kit (CisBio, cAMP dynamic 2 kit, 62AM4PEJ).
The 37 candidates remaining in Table 2 were identified and were tested in two parallel dose-response experiments to confirm the true enhancement properties of the potential candidates. First, a dose-response of each individual candidate was performed to determine if it was an agonist by itself. Second, the same candidate dose-response curve in the presence of EC20 LYRAL® concentration (generating 20% activity on OR10J5) was assessed for activity level increase.

[2] = molecular target: T2, OR10J5 (Homo sapiens, UniProt Q8NHC4); test: LYRAL® dose-response with serial enhancer concentrations, allosteric EC50 shift model; settings: for α (cooperativity factor): enhancer 0 to 600 μM, allosteric EC50 shift equation (Prism7), α>1 indicates positive allosteric modulation; for Kb: read-out: KB (equilibrium dissociation constant of the enhancer)
T2 construct: Flag; Rho (rhodopsin-derived tag); expressed in transfected cells
T2 sequence (Q8NHC4 1-309): T1 sequence (Q8NHC4 1-309)
Protocol: Functional dose-response experiments were performed to reveal the allosteric nature of the interaction between 3-(1,3-benzodioxol-5-yl)-2-methylpropanal, 3-(4-methylcyclohex-3-en-1-yl)butanal, 2,6-dimethylhept-5-enal and heptanal and OR10J5. The level of enhancement of OR10J5's activation was evaluated at distinct concentrations of each enhancer. Using the same cell-based assay described earlier, dose response curves of OR10J5 to LYRAL® in the presence of serial concentrations of the enhancers spanning from 0 to 600 μM were performed, see FIG. 5. The curves were obtained by applying the simplified Allosteric EC50 shift effect equation (available in Prism7) derived from the ternary complex interaction model. The enhancement levels recorded were not linearly dependent on the concentration of the enhancer, and the following key parameters values for α (the cooperativity factor) and KB (the equilibrium dissociation constant of the enhancer) were obtained from the model for each enhancer: 3-(1,3-benzodioxol-5-yl)-2-methylpropanal, α=6.3 and KB=10 μM; 3-(4-methylcyclohex-3-en-1-yl)butanal, α=7.5 and KB=15 μM; 2,6-dimethylhept-5-enal, α=4.1 and KB=16 μM; and heptanal; α=3.2 and KB=51 μM. α>1 is indicative of positive allosteric modulation.

[3] = molecular target: T2, OR10J5; test: (+−)-2,5-dimethyl-2-indanmethanol dose-response with a steady concentration of test compound
Protocol: OR10J5 activity enhancement was tested with an additional agonist and with one of the test compounds and conditions described in the Examples above. Dose response curves to (+−)-2,5-dimethyl-2-indanmethanol was obtained in the presence of a steady concentration of the test compound and compared to a dose-response curve of the agonist alone. The resulting enhancement was quantified by means of EC50-fold shift (potency increase) and the efficacy span ratio (efficacy increase) as described above.

[4] = molecular target: T1, OR10J5 olfactory receptor; test: Inhibition of LYRAL® (EC80)-induced receptor activity, screen and dose-response; settings: dose-response in the presence of EC80 LYRAL®
Protocol: Using the same cell-based assay described herein, OR10J5 activity inhibition was tested with binary mixtures of LYRAL® and a test compound. Volatile compounds were used to create binary mixtures of each compound with LYRAL® at approximately EC80, a concentration eliciting approximately 80% of full activity level of OR10J5 by itself. An activation cell-based assay was used for the initial inhibitor candidate identification as disclosed in WO2019101813.
The binary mixtures were created by mixing a LYRAL® stock solution with a stock solution of each test compound to a final concentration XXX and 300 μM, respectively. Stock solutions were made of compounds dissolved in pure DMSO. Each mixture was presented to a cell line expressing the OR10J5 olfactory receptor. Similar to the enhancement screening conditions, the final concentration of DMSO in each binary mixture was 0.1%, and had no visible effect on the cells. The resulting activation was measured and compared to LYRAL® alone (defining the activity baseline of the assay, ˜EC80). […] The quality of the HTS process was determined and the window (activity range between EC80 and the DMSO baseline) variability and signal reliability were assessed by calculating the Z′ value of each plate.
Candidate inhibitors identified were tested in a dose-response inhibition experiments to confirm the inhibition properties of the potential candidates. The dose-response curve in the presence of EC80 LYRAL® concentration (generating 80% activity on OR10J5) was assessed for dose-dependent activity level decrease. […] Both potency and efficacy of the confirmed inhibitors were evaluated by calculating their half-maximal inhibition concentration (IC50) relative to EC80 LYRAL and the amount of inhibition (Span), respectively. The IC50 values indicate the inhibition level with respect to the potency. The Span values indicate the inhibition level with respect to the inhibition efficacy. The IC50 values are used to rank order the compounds from strongest to weakest inhibitors of OR10J5 (FIG. 9a-d).

[5] = molecular target: T3, Olfr16 (Mus musculus, UniProt Q62007); test: LYRAL® dose-response with a steady concentration of test compound (EC50-fold shift); settings: Olfr16 (mouse ortholog); LYRAL® + steady concentration of compound vs LYRAL® alone
T3 construct: expressed in transfected cells
T3 sequence (Q62007 1-309): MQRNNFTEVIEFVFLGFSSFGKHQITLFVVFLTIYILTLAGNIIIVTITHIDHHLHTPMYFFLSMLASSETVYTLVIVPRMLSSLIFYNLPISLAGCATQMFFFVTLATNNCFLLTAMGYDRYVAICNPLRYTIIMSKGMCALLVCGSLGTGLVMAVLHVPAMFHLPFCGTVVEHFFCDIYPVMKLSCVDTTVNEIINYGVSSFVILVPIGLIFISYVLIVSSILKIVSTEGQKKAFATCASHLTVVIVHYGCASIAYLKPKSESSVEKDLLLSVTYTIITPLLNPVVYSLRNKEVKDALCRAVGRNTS
Protocol: (§3) LYRAL® enhancement specificity was tested on compounds that were structurally similar to enhancers identified. Dose response curves to LYRAL® were obtained in the presence of a steady concentration of a test compound and compared to a dose-response curve of LYRAL® alone. The resulting enhancement was quantified by means of EC50-fold shift (potency increase) and the efficacy span ratio (efficacy increase).
The EC50-fold shift was obtained by dividing the EC50 of LYRAL®+compound by the reference EC50 of LYRAL® alone. The span ratio was obtained by dividing the span of LYRAL®+compound by the reference span of LYRAL® alone.

[6] = molecular target: T2, OR10J5; test: as above; settings: LYRAL® + steady concentration of compound vs LYRAL® alone
Protocol: as §1, §3
The EC50-fold shift was obtained by dividing the EC50 of LYRAL®+compound by the reference EC50 of LYRAL® alone. […]

[7] = molecular target: T1, OR10J5 olfactory receptor; test: Single-point binary mixture enhancement screen (LYRAL® at about EC20 + test compound), cAMP HTRF; settings: binary mixture of 4.6 μM LYRAL® and 300 μM test compound, HEK293T
Protocol: A dose response curve showing the activation of OR10J5 in response to the floral muguet compound 3-(4-hydroxy-4-methylpentyl)cyclohex-3-ene-1-carbaldehyde, 4-(4-hydroxy-4-methylpentyl)cyclohex-3-ene-1-carbaldehyde or a mixture thereof (sold under the tradename LYRAL®, hereinafter referred to as “LYRAL®”) is shown in FIG. 1. Using a cell-based assay, OR10J5 activity was tested in a HEK293T cell line wherein the endogenous chaperone RTP1 gene has been activated and the odorant receptor chaperone was expressed according to the methods disclosed in International Patent Application Publication No. WO2016/201153 A1. […]
as §2, with “An activation cell-based assay was used for the initial enhancer candidate identification as disclosed in WO2019122236.” left out, “62AM4PEJ). […]” for “62AM4PEJ).”
The resulting activation was then measured and compared to LYRAL® alone (defining the baseline of the enhancement assay). The quality of the HTS process was determined and the window variability and signal reliability were assessed by calculating the Z′ value of each plate. […]

| Molecule | enhancement of OR10J5 LYRAL® activation (true enhancer) [1] | also measured |
| --- | --- | --- |
| 3,5,6-Trimethyl-3-Cyclohexene-1-Carbaldehyde + 2,4,6-Trimethyl-3-Cyclohexene-1-Carbaldehyde | potent enhancement | – |
| CC(C)=CCCC(C)C=O (racemic) [2,6-dimethylhept-5-enal] | potent enhancement | α (cooperativity factor) [2]: 4.1; Kb [2]: 16 µM |
| Cc1ccc(CC(C)C=O)cc1 (racemic) [2-methyl-3-(4-methylphenyl)propanal] | potent enhancement | – |
| COC(C)(C)CCCC(C)C=O (racemic) [6-methoxy-2,6-dimethylheptanal] | potent enhancement | – |
| Cc1ccc2c(c1)CC(C)(CO)C2 (racemic) [(+−)-2,5-dimethyl-2-indanmethanol, reference compound] | – | agonist character at OR10J5 [3]: partial agonist |
| CCOC(=O)C(=O)C(C)CC (racemic) [(+−)-ethyl 3-methyl-2-oxopentanoate] | – | inhibition of the OR10J5 response to LYRAL® [4]: decreased the response |
| CC1=CC(C)C(C=O)C(C)C1 (centres unmarked) [2,4,6-trimethyl-3-cyclohexene-1-carbaldehyde] | potent enhancement | – |
| CC(C=O)c1ccccc1 (centres unmarked) [2-phenylpropanal] | potent enhancement | – |
| Cc1cccc(C=O)c1 [3-methylbenzaldehyde] | potent enhancement | – |
| CC(C)c1ccc(C=O)cc1 [4-Propan-2-ylbenzaldehyde] | potent enhancement | – |
| CCc1ccc(C=O)cc1 [4-ethylbenzaldehyde] | potent enhancement | – |
| CCCc1ccc2c(c1)OCC(=O)CO2 [7-propyl-2H,4H-1,5-benzodioxepin-3-one] | – | inhibition of the OR10J5 response to LYRAL® [4]: decreased the response |
| CC(C)=CCC[C@@H](C)CC=O [(3R)-3,7-dimethyloct-6-enal] | potent enhancement | – |
| C/C=C/C=O [(E)-but-2-enal] | potent enhancement | – |
| CCCCCCC/C=C/C=O [(E)-dec-2-enal] | potent enhancement | – |
| CCCCCC/C=C/C=O [(E)-non-2-enal] | potent enhancement | – |
| C=C1CC[C@@H]2O[C@]2(C)CC[C@@H]2[C@@H]1CC2(C)C [(−)-(1R,4R,6S,10S)-4,12,12-trimethyl-9-methylene-5-oxatricyclo[8.2.0.0^4,6]dodecane] | – | inhibition of the OR10J5 response to LYRAL® [4]: decreased the response |
| O=Cc1ccccc1 [benzaldehyde] | potent enhancement | – |
| O=Cc1ccc2c(c1)OCO2 [benzo[d][1,3]dioxole-5-carbaldehyde, reference compound] | – | EC50 fold shift of (+−)-2,5-dimethyl-2-indanmethanol ([3]; OR10J5, agonist + steady concentration of compound vs agonist alone): 2.0 fold; EC50 fold shift of LYRAL® (potency increase) [5]: 1.5 fold; EC50 fold shift of LYRAL® (potency increase) [6]: 1.8 fold |
| C[C@@H]1C/C=C\CCCCCCCCCC(=O)C1 [compound 2] | – | OR10J5 olfactory receptor agonists among screen hits [7]: agonists |
| COC(=O)c1ccccc1/N=C/c1ccccc1 [compound 15] | – | OR10J5 olfactory receptor agonists among screen hits [7]: agonists |
| CCCCCCC=O [heptanal] | potent enhancement | α (cooperativity factor) [2]: 3.2; Kb [2]: 51 µM |
| CCCCCC=O [hexanal] | potent enhancement | – |
| CCCCCCCC=O [octanal] | potent enhancement | – |
| CC1=CCCC2(C)OC2CCC(C)=CCC1 (centres unmarked) [trimethyl-13-oxabicyclo-[10.1.0]-trideca-4,8-diene] | – | inhibition of the OR10J5 response to LYRAL® [4]: decreased the response |
| (+−)-3-(4-Methyl-3-penten-1-yl)-3-cyclohexene-1-carbaldehyde + (+−)-4-(4-Methyl-3-penten-1-yl)-3-cyclohexene-1-carbaldehyde | potent enhancement | – |
